Assay results: publication PMC2614658 (Antiviral Research, 2008)
Like-named read-outs stand apart in the source and are kept apart here.

How the values were obtained:
influenza A/WSN/33 virus [1] = settings: ∼6 μM PMA
influenza A/WSN/33 virus [2] = test system: influenza A/WSN/33 virus
[3] = test system: influenza B/Yamagata/88 virus; format: cell-based
A549 cells = settings: 24 h treatment, MTS assay
[4] = test system: Newcastle disease virus (NDV/B1); format: cell-based
[5] = test system: vesicular stomatitis virus (VSV-GFP); format: cell-based
influenza A/WSN/33 virus [6] = format: cell-based
influenza A/WSN/33 virus [7] = test: microbe, parasite or virus in culture; settings: A549, 24 h
in vitro = settings: human
influenza A/WSN/33 virus [8] = test: in vitro; settings: human
[9] = read-out: IC50 (compound concentration of 50% inhibition of viral replication)

Question: Which results are given for CCCCCCCCCCCCCC(=O)O[C@@H]1[C@@H](C)[C@@]2(O)[C@@H](C=C(CO)C[C@]3(O)C(=O)C(C)=C[C@@H]23)[C@@H]2C(C)(C)[C@]12OC(C)=O [PMA, phorbol 12-myristate 13-acetate]?
Answer: toxicity at the concentration used in the screen (influenza A/WSN/33 virus [1]): toxic; increase in viral titer compared to untreated control (influenza A/WSN/33 virus [2]): 12 fold

Question: Which results are given for N#Cc1cc2c(OCC(O)CN3CCN(C(c4ccccc4)c4ccccc4)CC3)cccc2[nH]1 (stereo not shown) [SDZ-201106]?
Answer: reduction in viral titers compared to untreated control [3]: 72%; SI (CC50/IC50), selective index (influenza A/WSN/33 virus [2]): 7; reduction in viral titers compared to untreated control (influenza A/WSN/33 virus [2]): 85%; IC50 (influenza A/WSN/33 virus [2]; [9]): 4.1 µM; concentrations found to be non-toxic / not decreasing cell viability (A549 cells): up to 12.5 μM

Question: Which results are given for CC(=O)O[C@H]1C[C@H](O[C@H]2[C@@H](O)C[C@H](O[C@H]3[C@@H](O)C[C@H](O[C@H]4CC[C@@]5(C)[C@H](CC[C@@H]6[C@@H]5C[C@@H](O)[C@]5(C)[C@@H](C7=CC(=O)OC7)CC[C@]65O)C4)O[C@@H]3C)O[C@@H]2C)O[C@H](C)[C@H]1O[C@@H]1O[C@H](CO)[C@@H](O)[C@H](O)[C@H]1O [lanatoside C]?
Answer: effect on viral replication [4]: significantly inhibit; effect on viral replication [5]: significantly inhibit; decrease in viral titers compared to untreated control (influenza A/WSN/33 virus [2]; […], 20 nM ouabain or 78 nM lanatoside C): 95.9%

Question: Which “increase in viral titers” value (influenza A/WSN/33 virus [6]) does the source give for C=C(C)[C@@]12O[C@@]3(c4ccccc4)O[C@@H]1[C@@H]1[C@@H]4O[C@]4(CO)[C@@H](O)[C@]4(O)C(=O)C(C)=C[C@H]4[C@@]1(O3)[C@H](C)[C@H]2OC(=O)/C=C/C=C/c1ccccc1 [mezerein] here?
Answer: 15 fold

Question: What about the “increase in viral titer compared to untreated cells” value [3] of the same compound?
Answer: eightfold

Question: Which “effect on viral replication” value [4] does the source give for C[C@@H]1O[C@@H](O[C@H]2C[C@@H](O)[C@]3(CO)[C@H]4[C@H](O)C[C@]5(C)[C@@H](C6=CC(=O)OC6)CC[C@]5(O)[C@@H]4CC[C@]3(O)C2)[C@H](O)[C@H](O)[C@H]1O [ouabain] here?
Answer: significantly inhibit

Question: What about the “effect on viral replication” value [5] of the same compound?
Answer: significantly inhibit

Question: And the “decrease in viral titers compared to untreated control” value (influenza A/WSN/33 virus [2])?
Answer: 99.1%

Question: Which results are given for CC(=O)c1c(O)c(C)c(O)c(Cc2c(O)c3c(c(C(=O)/C=C/c4ccccc4)c2O)OC(C)(C)C=C3)c1O [rottlerin]?
Answer: IC50 (influenza A/WSN/33 virus [7]; [9]): 0.46 µM; IC50 (influenza A/WSN/33 virus [7]; read-out: IC50 (half maximal inhibitory concentration)): 0.465 µM; reduction in viral titers compared to untreated control [3]: 80%; CC50 (in vitro): 18.2 µM; selectivity ratio (influenza A/WSN/33 virus [8]): 39; reduction in viral titers compared to untreated control (influenza A/WSN/33 virus [2]): 93%; concentrations found to be non-toxic / not decreasing cell viability (A549 cells): up to 1.28 μM
